Measured values from PMC12557380, “Optimization of 2,8-Diaryl-1,5-naphthyridines as Plasmodium falciparum Phosphatidylinositol 4‑Kinase Inhibitors with Improved ADME Profiles and In Vivo Efficacy” (Journal of Medicinal Chemistry, 2025).
≈ marks a conversion by molar mass, not a printed value. Like-named read-outs stand apart in the source and are kept apart here.

Columns and labels:
PfDd2 = details: read-out: PfDd2 IC50; reported inhibitors, Figure 1; cited from earlier work
[1] = tested on: panel of the drug-resistant strains of P. falciparum; details: Figure 1, read-out: PfIC50; cited from earlier work
P. vivax PI4Kβ (PvPI4K) = details: cited from earlier work
HsPI4K = details: reported inhibitors, Figure 1; cited from earlier work
[2] = tested on: P. falciparum NF54 (PfNF54) parasites; assay: In vitro antiplasmodial asexual blood stage activity, pLDH assay, NF54; type: cell-based, Plasmodium falciparum; details: Plasmodium falciparum
[3] = tested on: P. falciparum K1 (PfK1) strain; assay: In vitro antiplasmodial asexual blood stage activity, pLDH assay, K1; type: cell-based; details: Plasmodium falciparum
[4] = tested on: Chinese hamster ovary cells; assay: Cytotoxicity, MTT assay, CHO; type: cell-based; details: Cricetulus griseus, read-out: CHO IC50
HepG2 cells = assay: Cytotoxicity, MTT assay, HepG2; type: cell-based
[5] = tested on: L6 rat myoblast cell line; assay: Cytotoxicity, L6; type: cell-based; details: read-out: L6 IC50
PfNF54 = details: cited from earlier work
Pf3D7 = details: read-out: Pf3D7 IC50; cited from earlier work
[6] = for in vivo mouse CLb: total body clearance from whole blood, iv 3 mg/kg; for in vivo mouse CLu: unbound blood clearance from CLb and plasma protein binding
in vivo = details: male, Balb/C, mouse, po, 10 mg/kg
physchem [7] = details: 25 °C, pH 6.5, aqueous buffer, thermodynamic from solid
physchem [8] = details: n-octanol/phosphate buffer (1:1), pH 7.4
in vitro [9] = details: human, Caco-2
in vitro [10] = details: human, pH 7.4
in vitro [11] = details: mouse, pH 7.4
[12] = tested on: P. falciparum PI4K cKD line; assay: microbe, parasite or virus in culture; details: Plasmodium falciparum
HsPI3Kα = HsPI3Kα (Homo sapiens, UniProt P42336); assay: Human lipid kinase screening, ADP-Glo, PI3Kα; type: biochemical; details: IC50/PvPI4K IC50
HsPI4Kβ = HsPI4Kβ (Homo sapiens, UniProt Q9UBF8); assay: Human lipid kinase screening, ADP-Glo, PI4Kβ; type: biochemical; details: IC50/PvPI4K IC50
Chain of HsPI4Kβ (Q9UBF8 whole entry): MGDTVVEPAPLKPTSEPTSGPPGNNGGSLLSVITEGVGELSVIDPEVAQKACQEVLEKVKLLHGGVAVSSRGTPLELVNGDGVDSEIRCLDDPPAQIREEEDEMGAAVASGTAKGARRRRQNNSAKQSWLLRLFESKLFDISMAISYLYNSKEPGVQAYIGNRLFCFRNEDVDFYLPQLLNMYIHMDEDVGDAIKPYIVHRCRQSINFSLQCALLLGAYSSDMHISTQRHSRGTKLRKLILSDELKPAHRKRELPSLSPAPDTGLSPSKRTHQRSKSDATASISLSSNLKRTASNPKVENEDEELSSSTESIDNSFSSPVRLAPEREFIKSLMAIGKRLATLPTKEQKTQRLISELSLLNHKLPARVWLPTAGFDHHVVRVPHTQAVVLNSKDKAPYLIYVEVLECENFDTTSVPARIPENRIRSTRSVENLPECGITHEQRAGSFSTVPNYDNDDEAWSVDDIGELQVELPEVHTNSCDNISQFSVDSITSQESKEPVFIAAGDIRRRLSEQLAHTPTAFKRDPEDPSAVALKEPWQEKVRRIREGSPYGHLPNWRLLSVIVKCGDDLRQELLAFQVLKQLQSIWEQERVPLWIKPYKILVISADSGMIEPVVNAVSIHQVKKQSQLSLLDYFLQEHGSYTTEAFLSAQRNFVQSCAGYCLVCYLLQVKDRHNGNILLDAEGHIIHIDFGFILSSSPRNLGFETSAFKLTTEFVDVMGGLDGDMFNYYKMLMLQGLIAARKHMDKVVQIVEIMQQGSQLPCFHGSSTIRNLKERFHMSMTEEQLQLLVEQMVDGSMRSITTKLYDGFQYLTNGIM

HsMINK1 = HsMINK1 (Homo sapiens, UniProt Q8N4C8); assay: Human kinase screening, ADP-Glo, MINK1; type: biochemical; details: IC50/PvPI4K IC50
Chain of HsMINK1 (Q8N4C8 whole entry): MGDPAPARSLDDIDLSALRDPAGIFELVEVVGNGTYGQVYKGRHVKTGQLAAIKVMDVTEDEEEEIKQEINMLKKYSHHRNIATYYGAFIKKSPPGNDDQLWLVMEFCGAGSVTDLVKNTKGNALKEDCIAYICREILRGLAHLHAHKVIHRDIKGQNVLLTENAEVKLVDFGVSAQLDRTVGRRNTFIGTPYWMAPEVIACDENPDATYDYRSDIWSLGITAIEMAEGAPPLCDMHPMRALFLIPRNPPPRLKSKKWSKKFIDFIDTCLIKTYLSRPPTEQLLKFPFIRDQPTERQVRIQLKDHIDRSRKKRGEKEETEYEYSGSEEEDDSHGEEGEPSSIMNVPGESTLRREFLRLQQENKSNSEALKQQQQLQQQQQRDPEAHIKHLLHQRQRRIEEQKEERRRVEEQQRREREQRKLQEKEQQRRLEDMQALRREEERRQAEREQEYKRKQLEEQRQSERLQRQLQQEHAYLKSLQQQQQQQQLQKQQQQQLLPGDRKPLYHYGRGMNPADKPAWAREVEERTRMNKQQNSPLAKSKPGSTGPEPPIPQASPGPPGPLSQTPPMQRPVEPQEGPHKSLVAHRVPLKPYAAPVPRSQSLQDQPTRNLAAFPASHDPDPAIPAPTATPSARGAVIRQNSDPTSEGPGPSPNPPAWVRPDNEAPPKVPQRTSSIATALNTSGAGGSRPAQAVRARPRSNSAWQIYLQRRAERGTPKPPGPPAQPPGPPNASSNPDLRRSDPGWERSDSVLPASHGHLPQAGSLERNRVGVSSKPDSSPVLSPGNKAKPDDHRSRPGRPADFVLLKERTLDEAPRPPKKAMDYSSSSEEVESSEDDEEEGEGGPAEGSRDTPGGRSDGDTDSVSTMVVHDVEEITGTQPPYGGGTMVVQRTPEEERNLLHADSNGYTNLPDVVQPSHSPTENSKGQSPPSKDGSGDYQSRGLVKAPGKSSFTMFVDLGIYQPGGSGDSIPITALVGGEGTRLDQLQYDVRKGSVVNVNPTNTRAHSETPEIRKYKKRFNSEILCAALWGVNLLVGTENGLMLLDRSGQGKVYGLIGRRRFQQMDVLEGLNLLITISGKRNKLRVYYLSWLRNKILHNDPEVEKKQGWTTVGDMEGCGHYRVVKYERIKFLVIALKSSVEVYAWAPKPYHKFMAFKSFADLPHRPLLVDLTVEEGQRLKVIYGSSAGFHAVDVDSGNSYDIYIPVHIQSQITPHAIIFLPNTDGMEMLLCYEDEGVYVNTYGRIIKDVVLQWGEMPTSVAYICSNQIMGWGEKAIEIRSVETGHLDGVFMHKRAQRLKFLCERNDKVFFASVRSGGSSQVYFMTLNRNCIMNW

HsMAP4K4 = HsMAP4K4 (Homo sapiens, UniProt O95819); assay: Human kinase screening, ADP-Glo, MAP4K4; type: biochemical; details: IC50/PvPI4K IC50
Chain of HsMAP4K4 (O95819 whole entry): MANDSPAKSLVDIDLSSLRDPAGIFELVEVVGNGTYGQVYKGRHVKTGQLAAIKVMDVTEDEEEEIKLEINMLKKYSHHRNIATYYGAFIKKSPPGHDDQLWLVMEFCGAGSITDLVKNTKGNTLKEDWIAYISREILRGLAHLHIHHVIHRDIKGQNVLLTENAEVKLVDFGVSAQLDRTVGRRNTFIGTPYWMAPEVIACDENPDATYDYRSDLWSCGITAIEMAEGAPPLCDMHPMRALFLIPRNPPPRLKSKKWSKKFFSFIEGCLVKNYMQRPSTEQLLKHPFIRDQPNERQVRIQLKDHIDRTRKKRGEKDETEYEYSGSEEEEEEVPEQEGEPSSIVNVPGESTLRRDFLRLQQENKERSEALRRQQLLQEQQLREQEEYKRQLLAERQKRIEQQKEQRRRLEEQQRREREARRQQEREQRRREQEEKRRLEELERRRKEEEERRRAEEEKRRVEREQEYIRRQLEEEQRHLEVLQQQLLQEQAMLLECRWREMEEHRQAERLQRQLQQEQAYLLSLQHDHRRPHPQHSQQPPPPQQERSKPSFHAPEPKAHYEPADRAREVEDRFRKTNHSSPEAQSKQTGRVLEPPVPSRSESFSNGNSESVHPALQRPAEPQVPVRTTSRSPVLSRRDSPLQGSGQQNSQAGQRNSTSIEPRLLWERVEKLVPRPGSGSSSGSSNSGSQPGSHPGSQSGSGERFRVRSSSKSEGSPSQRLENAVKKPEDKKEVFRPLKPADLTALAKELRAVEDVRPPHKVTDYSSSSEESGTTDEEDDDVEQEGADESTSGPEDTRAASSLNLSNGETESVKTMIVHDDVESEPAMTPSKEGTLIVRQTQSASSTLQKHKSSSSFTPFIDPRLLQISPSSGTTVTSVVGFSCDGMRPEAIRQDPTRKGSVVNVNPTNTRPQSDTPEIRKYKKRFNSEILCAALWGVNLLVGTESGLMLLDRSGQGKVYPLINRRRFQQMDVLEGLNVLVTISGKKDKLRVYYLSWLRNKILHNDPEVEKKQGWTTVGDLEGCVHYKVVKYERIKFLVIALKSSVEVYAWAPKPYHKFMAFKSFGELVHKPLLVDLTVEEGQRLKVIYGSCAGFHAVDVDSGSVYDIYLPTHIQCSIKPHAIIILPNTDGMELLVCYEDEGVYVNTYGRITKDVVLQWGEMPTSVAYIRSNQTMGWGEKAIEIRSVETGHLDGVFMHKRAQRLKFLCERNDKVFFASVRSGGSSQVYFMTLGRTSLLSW

[13] = tested on: PI4K S743F + H1484Y and PI4K S1320L + L1418F mutant lines; details: 72 h, SYBR green I
[14] = NF54, 72 h, read-out: Pf ABS IC50 NF54
[15] = K1, 72 h, read-out: Pf ABS IC50 K1
[16] = Homo sapiens, HepG2, read-out: HepG2 IC50
[17] = NF54, 72 h, pLDH assay, 72 h, read-out: Pf ABS IC50 NF54
[18] = read-out: IC50 Mean + SD, +aTc, mean of N=3, +aTc
[19] = read-out: IC50 Mean + SD, no aTc, mean of N=3, no aTc
[20] = read-out: IC50 for PfPI4K, +aTc, N=1, +aTc
[21] = read-out: IC50 for PfPI4K, +aTc, N=2, +aTc
[22] = read-out: IC50 for PfPI4K, +aTc, N=3, +aTc
[23] = read-out: IC50 for PfPI4K, no aTc, N=1, no aTc (knockdown)
[24] = read-out: IC50 for PfPI4K, no aTc, N=2, no aTc (knockdown)
[25] = read-out: IC50 for PfPI4K, no aTc, N=3, no aTc (knockdown)
[26] = NF54, mean, supplement, read-out: PfNF54 IC50

COc1ccc2c3c([nH]c2c1)[C@H](CO)N(C(C)=O)CC31CCN(C(=O)Nc2ccccc2F)CC1 [BRD73842]
IC50 (PfDd2): 69 nM

CNC(=O)c1cncc(-c2cnc(Cl)c(NS(=O)(=O)c3ccccc3)c2)c1 [CHMFL-PI4K-127, 6′-Chloro-N-Methyl-5′-(Phenylsulfonamido)-[3,3′-Bipyridine]-5-Carboxamide]
IC50 [1]: 24 to 47 nM
IC50 (P. vivax PI4Kβ (PvPI4K); reported inhibitors, Figure 1): 0.9 nM
IC50 (HsPI4K): 430 nM

NS(=O)(=O)c1cccc(-c2ccc3nccc(-c4ccnc(C(F)(F)F)c4)c3n2)c1 [Compound 1]
IC50 [2, 14]: 63 nM
IC50 [3, 15]: 86 nM
IC50 [4]: 6000 nM
IC50 (HepG2 cells; [16]): 48000 nM
IC50 [5]: 35000 nM
IC50 (PfNF54): 63 nM
IC50 (P. vivax PI4Kβ (PvPI4K)): 6 nM
IC50 (Pf3D7): 140 nM

Cn1ccc(-c2ccc3nccc(-c4cccc(S(C)(=O)=O)c4)c3n2)cc1=O [Compound 19, 1-Methyl-4-[8-(3-methylsulfonylphenyl)-1,5-naphthyridin-2-yl]pyridin-2-one]
IC50 [2, 17]: 16 nM
IC50 ([4]; one biological replicate): 47000 nM
in vivo mouse CLb [6]: 102 mL/min/kg
in vivo mouse CLu [6]: 300 mL/min/kg
bioavailability (in vivo): 27%
solubility thermodynamic at 20 h (physchem [7]): 40 µM (≈ 15.7 µg/mL)
logD at 3 h (physchem [8]): 1.46
Papp A→B (in vitro [9]): 14 ×10⁻⁶ cm/s
CLint scaled at 1 µM (in vitro [10]; microsomes): < 13.4 mL/min/kg
CLint scaled at 1 µM (in vitro [10]; pooled human liver microsomes): < 19.7 mL/min/kg
CLint scaled at 1 µM (in vitro [11]; microsomes): < 45.7 mL/min/kg
CLint scaled at 1 µM (in vitro [11]; mouse liver microsomes): < 67.2 mL/min/kg
IC50 [12, 18]: 36 nM
IC50 [12, 19]: 4.3 nM
IC50 [12, 20]: 48.9 nM
IC50 [12, 21]: 20.2 nM
IC50 [12, 22]: 39.2 nM
IC50 [12, 23]: 5.2 nM
IC50 [12, 24]: 2.5 nM
IC50 [12, 25]: 5.1 nM

CS(=O)(=O)c1cccc(-c2ccnc3ccc(N4CCC(O)CC4)nc23)c1 [Compound 21, 1-[8-(3-Methylsulfonylphenyl)-1,5-naphthyridin-2-yl]piperidin-4-ol]
IC50 [2, 17]: 32 nM
IC50 ([4]; one biological replicate): 49000 nM
IC50 (HepG2 cells; Homo sapiens, HepG2; read-out: HepG2 IC50): > 50000 nM
IC50 [5]: 8000 nM
in vivo mouse CLb [6]: 80 mL/min/kg
in vivo mouse CLu [6]: 533 mL/min/kg
bioavailability (in vivo): 37%
solubility thermodynamic at 20 h (physchem [7]; aqueous solution): 150 µM (≈ 57.5 µg/mL)
logD at 3 h (physchem [8]): 2.27
Papp A→B (in vitro [9]): 18 ×10⁻⁶ cm/s
CLint scaled at 1 µM (in vitro [10]; microsomes): < 13.4 mL/min/kg
CLint scaled at 1 µM (in vitro [10]; pooled human liver microsomes): < 17.6 mL/min/kg
CLint scaled at 1 µM (in vitro [11]; microsomes): < 45.7 mL/min/kg
CLint scaled at 1 µM (in vitro [11]; mouse liver microsomes): < 60.1 mL/min/kg
IC50 [12, 18]: 84.5 nM
IC50 [12, 19]: 14 nM
IC50 [12, 20]: 131 nM
IC50 [12, 21]: 68.9 nM
IC50 [12, 22]: 53.6 nM
IC50 [12, 23]: 21.7 nM
IC50 [12, 24]: 10.5 nM
IC50 [12, 25]: 9.7 nM

CS(=O)(=O)c1cccc(-c2ccnc3ccc(N4CCCC(C(N)=O)C4)nc23)c1 (centres unmarked) [Compound 22, 1-[8-(3-Methylsulfonylphenyl)-1,5-naphthyridin-2-yl]piperidine-3-carboxamide]
IC50 [2, 17]: 67 nM
IC50 [2, 26]: 67.2 nM
IC50 ([4]; one biological replicate): > 50000 nM
HsPI3Kα SI (HsPI3Kα): 60
HsPI4Kβ SI (HsPI4Kβ): 56
HsMINK1 SI (HsMINK1): > 4000
HsMAP4K4 SI (HsMAP4K4): > 4000
solubility thermodynamic at 20 h (physchem [7]): 10 µM (≈ 4.1 µg/mL)

CNC(=O)Cc1cccc(-c2ccc3nccc(-c4ccc(C(C)(C)O)nc4)c3n2)c1 [Compound 27, 2-[3-[8-[6-(2-Hydroxypropan-2-yl)pyridin-3-yl]-1,5-naphthyridin-2-yl]phenyl]-N-methylacetamide]
IC50 [2, 14]: 51 nM
IC50 ([2]; NF54, read-out: PfNF54 IC50): 50.7 nM
IC50 ([2]; NF54, read-out: free IC50): 40 nM
IC50 [3, 15]: 81 nM
IC50 ([3]; K1, read-out: PfK1 IC50): 81.2 nM
IC50 [4]: 31000 nM
IC50 (HepG2 cells; [16]): 6000 nM
IC50 [5]: 38000 nM

CS(=O)(=O)c1cccc(-c2ccc3nccc(-c4ccc(C(=O)N5CCC(O)C5)cc4)c3n2)c1 (centres unmarked) [Compound 37, (3-Hydroxypyrrolidin-1-yl)-[4-[6-(3-methylsulfonylphenyl)-1,5-naphthyridin-4-yl]phenyl]methanone]
IC50 [2, 17]: 32 nM
IC50 [2, 26]: 32.2 nM
IC50 ([3]; K1, pLDH assay, 72 h, read-out: Pf ABS IC50 K1): 96 nM
IC50 ([4]; one biological replicate): 24000 nM
IC50 shift against PI4K mutant lines relative to parent Dd2 [13]: showed IC50 shifts
in vivo mouse CLb [6]: 181 mL/min/kg
in vivo mouse CLu [6]: 362 mL/min/kg
bioavailability (in vivo): 11%
solubility thermodynamic at 20 h (physchem [7]; aqueous solution): 60 µM (≈ 28.4 µg/mL)
logD at 3 h (physchem [8]): 1.92
Papp A→B (in vitro [9]): 1.5 ×10⁻⁶ cm/s
efflux ratio (in vitro [9]): 32
CLint scaled at 1 µM (in vitro [10]; microsomes): < 13.4 mL/min/kg
CLint scaled at 1 µM (in vitro [10]; pooled human liver microsomes): < 27.3 mL/min/kg
CLint scaled at 1 µM (in vitro [11]; microsomes): < 45.7 mL/min/kg
CLint scaled at 1 µM (in vitro [11]; mouse liver microsomes): < 93.2 mL/min/kg

CNC(=O)c1ccc(-c2cnc3cnc(C(=O)N(C)c4ccc(Cl)cc4)cn23)cc1 [KDU691]
IC50 [1]: 27 to 70 nM
IC50 (P. vivax PI4Kβ (PvPI4K)): 1.6 nM
IC50 (HsPI4K): 7900 nM
